Here are results for 32 molecules from patent publication US20220305003A1, “METHODS OF TREATING CANCER WITH AN INHIBITOR OF ZNF827” (CHILDREN'S MEDICAL RESEARCH INSTITUTE, priority 2019, published 2022).

In one assay the test system is panel of 660 cell lines. As to the kind of experiment: Drug sensitivity (Sanger GDSC IC50) versus ZNF827 gene expression. It is filed as cell-based. The note with it: natural log of the IC50 from Sanger GDSC v17.3; low log2(TPM) <1 vs normal; Nemenyi test, adjusted p-value<0.05. The method, then: ZNF827 gene expression for the 660 cell lines was plotted on a histogram and grouped by gene expression level, represented as log2(TPM), into “low” (<1), “normal” (>1, <5) and “high” (>5). […] The Nemenyi statistical test was used to test for significant differences between “low” and “normal” ZNF827 expression groups for drug sensitivity for each compound. P-values were then corrected for multiple testing using FDR correction. […] All statistical analysis was performed in R (version 3.6.0), using the “stats” (version 3.6.0) and “PMCMR” (version 4.3) libraries.

In a further assay the test system is ATR-CHK1 pathway. As to the kind of experiment: Western blot of ATR downstream effectors (p-CHK1 S345, p-RPA2 S33, pCHK2). It is filed as cell-based. Conditions: U-2 OS; agent alone (topotecan 2 μg/mL 24 hours, aphidicolin 1 μM 20 hours, or siRNA knockdown in unchallenged cells). On the procedure: Protein was extracted from 10^6 cells per sample by vigorous pipetting and incubation at room temperature for 30 minutes in 100 μL of EDTA-free 4× LDS buffer (106 mM Tris-Cl, 141 mM Tris-Base, 40% Glycerol, 2% LDS, 0.075% SERVA Blue G50) supplemented with 2.5% Benzonase® nuclease 25 U/μL (Novagen, Merck Millipore) and 2% beta-mercaptoethanol (Sigma). Following protein extraction, all samples were denatured at 90° C. for 15 minutes before resolving on NuPAGE® Novex® 4-12% Bis-Tris Mini Gels (Invitrogen) with 1×10^5 cells (10 μL) loaded per lane in NuPAGE® MES SDS running buffer (Invitrogen) at 200 V for 50 minutes. Gels were transferred onto a PVDF membrane (Immobilon-P, Millipore) in transfer buffer (190 mM glycine, 25 mM Tris and 10% methanol) at 100 V for 60 minutes. Membranes were stained with Ponceau-S for 30 minutes, de-stained then blocked for 1 hour at room temperature in 5% skim milk dissolved in PBS with 0.1% Tween-20 (PBST) or TBS with 0.1% Tween-20 (TBST) for phosphorylated proteins. Membranes were cut into appropriate segments based on the size markers, with each segment incubated with antibodies for proteins of interest diluted in 0.5% skim milk in PBST/TBST or 5% BSA overnight at 4° C. (Refer to Table 4 for the list of antibodies). Blots were then washed for 3×5 minutes in PBST/TBST followed by incubation for 1 hour at room temperature with appropriate secondary antibodies (See Table 5) diluted 1:5000 in 0.5% skim milk or 5% BSA in PBST/TBST. Blots were washed for 3×5 minutes in PBST/TBST before incubation with SuperSignal West Pico Chemiluminescent Substrate (ThermoFisher Scientific) for 5 minutes at room temperature. Blots were then exposed to a Luminescent Image Analyser (LAS-4000, Fujifilm).
To investigate the precise function of ZNF827 in the ATR pathway, the effect of ZNF827 depletion on the downstream effectors of ATR was examined. To activate ATR, U-2 OS cells were treated with DNA damage and replication stress inducing agents topotecan 2 μg/mL for 24 hours or aphidicolin 1 μM for 20 hours. […] Phosphorylation of CHK2 was not affected by ZNF827 depletion, further supporting that the role of ZNF827 in DNA damage and repair is independent of ATM (FIG. 6d).
On the technique in general: A western blot detects proteins with antibodies after separation by electrophoresis.

For the molecule `CCCC(=O)OCc1ccc(OC(=O)/C=C(C)/C=C/C=C(C)/C=C/C2=C(C)CCCC2(C)C)cc1` [VNLG-124], the “drug sensitivity in cell lines with low ZNF827 compared to cell lines with normal ZNF827 expression” value in the assay with panel of 660 cell lines was “Increased sensitivity”. The same measure, in the same setting: then `C=C(c1ccc(C(=O)O)cc1)c1cc2c(cc1C)C(C)(C)CCC2(C)C` [Bexarotene], with “Increased sensitivity”; and `CCNC(=O)C[C@@H]1N=C(c2ccc(Cl)cc2)c2cc(OC)ccc2-n2c(C)nnc21` [I-BET-762], with “Increased sensitivity”. The same measure, in the same setting: under `CN(C)C/C=C/C(=O)Nc1ccc(C(=O)Nc2cccc(Nc3ncc(Cl)c(-c4c[nH]c5ccccc45)n3)c2)cc1` [THZ-2-102-1] stands “Increased sensitivity”; under `CC1=C(/C=C/C(C)=C/C=C/C(C)=C/C(=O)O)C(C)(C)CCC1` [Tretinoin], “Increased sensitivity”; under `[H]/N=C(/N)N/C(=N/[H])NCCc1ccccc1` [Phenformin], “Increased sensitivity”.

With `CCN(CC)CCNC(=O)c1c(C)[nH]c(/C=C2\C(=O)Nc3ccc(F)cc32)c1C.O=C(O)C[C@H](O)C(=O)O` [Sunitib], the “drug sensitivity in cell lines with low ZNF827 compared to cell lines with normal ZNF827 expression” value in the assay with panel of 660 cell lines is reported as “Increased sensitivity”.

With `Cc1cn(-c2cc(NC(=O)c3ccc(C)c(Nc4nccc(-c5cccnc5)n4)c3)cc(C(F)(F)F)c2)cn1` [Nilotinib], in the assay with panel of 660 cell lines, the “drug sensitivity in cell lines with low ZNF827 compared to cell lines with normal ZNF827 expression” value is “Increased sensitivity”. Same read-out and setting: under `NC(=O)c1ccc(N(C(N)=O)c2c(F)cccc2F)nc1-c1ccc(F)cc1F` [VX-702] stands “Increased sensitivity”; under `Nc1[nH]nc2nnc(-c3c(-c4ccccc4)nn4ccccc34)cc12` [FR-180204], “Increased sensitivity”.

On to `CC/C(=C(\c1ccccc1)c1ccc(OCCN(C)C)cc1)c1ccccc1` [Tamoxifen], for which the “drug sensitivity in cell lines with low ZNF827 compared to cell lines with normal ZNF827 expression” value in the assay with panel of 660 cell lines is given as “Increased sensitivity”. On the same count and under the same terms, then `Cc1ccc(-c2c(C(=O)CF)n(CCCO)c3ncnc(N)c23)cc1` [FMK], with “Increased sensitivity”; and `COc1cc(C(=O)NC2CCN(C)CC2)ccc1Nc1ncc2c(n1)N(C1CCCC1)C(C)CC(=O)N2C` (centres unmarked) [NPK76-II-72-1], with “Increased sensitivity”.

As for TL-2-105, the “drug sensitivity in cell lines with low ZNF827 compared to cell lines with normal ZNF827 expression” value in the assay with panel of 660 cell lines is recorded as “Increased sensitivity”. Still for that read-out and setting: then `O=C(CCCCCCC(=O)Nc1ccccc1)NO` [Vorinostat], with “Increased sensitivity”; and THZ-2-49, with “Increased sensitivity”; and KIN001-236, with “Increased sensitivity”. Same read-out and setting: under `CCc1nc(-c2cccc(C)c2)c(-c2ccnc(NC(=O)c3ccccc3)c2)s1` [TAK-715] stands “Increased sensitivity”; under `O=C(NOC[C@H](O)CO)c1ccc(F)c(F)c1Nc1ccc(I)cc1F` [PD0325901], “Increased sensitivity”. On to `C[C@@]1(CO)[C@H](O)CC[C@@]2(C)[C@H]1CC[C@H]1C[C@@H]3C[C@@]12CC[C@]3(O)CO` [aphidicolin], for which the “phosphorylation of CHK1 S345” value in the assay with ATR-CHK1 pathway is “became phosphorylated at S345”.

On to `Cc1ccc(NC(=O)c2ccc(CN3CCN(C)CC3)cc2)cc1Nc1nccc(-c2cccnc2)n1` [Imatinib], for which, in the assay on panel of 660 cell lines, the “drug sensitivity in cell lines with low ZNF827 compared to cell lines with normal ZNF827 expression” value is reported as “Increased sensitivity”. Same read-out and setting: then `Cc1ccc(NC(=O)c2cccc(C(C)(C)C#N)c2)cc1Nc1ccc2ncn(C)c(=O)c2c1` [AZ628], with “Increased sensitivity”; and `Cn1cc(/C=C2\C(=O)Nc3cccnc32)c2ccccc21` [GW441756], with “Increased sensitivity”.

For `CC1(C)CC(=O)c2c(C(F)(F)F)nn(-c3ccc(C(N)=O)c(N[C@H]4CC[C@H](O)CC4)c3)c2C1` [SNX-2112], in the assay on panel of 660 cell lines, the “drug sensitivity in cell lines with low ZNF827 compared to cell lines with normal ZNF827 expression” value is reported as “Increased sensitivity”. On the same count and under the same terms, under `Cc1ccc(C(=O)Nc2cccc(C(F)(F)F)c2)cc1Nc1nc(-c2cccnc2)nc2c1cnn2C` [NVP-BHG712] stands “Increased sensitivity”. The same measure, in the same setting: under TL-1-85 stands “Increased sensitivity”; under `O=S(=O)(c1ccccc1)N(CC(F)(F)F)c1ccc(C(O)(C(F)(F)F)C(F)(F)F)cc1` [T0901317], “Increased sensitivity”; under `O=c1[nH]c2ccccc2n1C1CCN(Cc2ccc(-c3nc4cc5[nH]cnc5cc4nc3-c3ccccc3)cc2)CC1` [AKT inhibitor VIII], “Increased sensitivity”. Same read-out and setting: then `O=C(N[C@@H](COc1ccc2[nH]c(=O)[nH]c2c1)c1ccccc1)c1cccn(Cc2ccc(F)c(F)c2)c1=O` [KIN001-244], with “Increased sensitivity”; and `O=C(Nc1ccc(OC(F)(F)F)cc1)c1sccc1NCc1ccnc2ccccc12` [OSI-930], with “Increased sensitivity”; and `O=C(NOCC1CC1)c1ccc(F)c(F)c1Nc1ccc(I)cc1Cl` [CI-1040], with “Increased sensitivity”.

Regarding KIN001-260, the “drug sensitivity in cell lines with low ZNF827 compared to cell lines with normal ZNF827 expression” value in the assay with panel of 660 cell lines was “Increased sensitivity”.
